pIC50: −log10 of the molar value.
Assay: Binding affinity opioid receptor

With `Cc1cc(O)cc(C)c1[C@H](C)[C@H](N)C(=O)N[C@H]1C(=O)NCC(=O)N[C@@H](Cc2ccccc2)C(=O)N[C@@H](C(=O)O)C(C)(C)SSC1(C)C` [(4S,7S,13S)-13-[(2S,3S)-2-Amino-3-(4-hydroxy-2,6-dimethyl-phenyl)-butyrylamino]-7-benzyl-3,3,14,14-tetramethyl-6,9,12-trioxo-1,2-dithia-5,8,11-triaza-cyclotetradecane-4-carboxylic acid] as the compound, how does the pIC50 read?
The pIC50 was 6.14.

With `Cc1cc(O)cc(C)c1[C@H](C)[C@H](N)C(=O)N[C@H](C)C(=O)N[C@@H](Cc1ccccc1)C(=O)N[C@@H](CC(=O)O)C(=O)N[C@H](C(=O)N[C@H](C(=O)NCC(N)=O)C(C)C)C(C)C` [(S)-3-((S)-2-{(R)-2-[(2S,3S)-2-Amino-3-(4-hydroxy-2,6-dimethyl-phenyl)-butyrylamino]-propionylamino}-3-phenyl-propionylamino)-N-{(S)-1-[(S)-1-(carbamoylmethyl-carbamoyl)-2-methyl-propylcarbamoyl]-2-methyl-propyl}-succinamic acid] as the compound, how does the pIC50 read?
The pIC50 was 4.77.

From BindingDB's records for doi:10.1021/jm00038a004 (University of Arizona, 1994)
